{"source": "paper PMC5045423", "about": "“X66, a novel N-terminal heat shock protein 90 inhibitor, exerts antitumor effects without induction of heat shock response” (Oncotarget, 2016)", "key": {"HSP90α [1]": {"target": "T1, HSP90α (Homo sapiens, UniProt P07900)", "assay": "streptavidin pull-down of purified full-length HSP90α and NTD, competed by excess soluble X66", "assay_type": "binding", "parameters": "gene HSP90AA1; recombinant human full-length protein and its N-terminal fragment, but not the C-terminal fragment"}, "HSP90α [2]": {"target": "T1, HSP90α", "assay": "SPR (BIAcore […], immobilized full-length HSP90α); also competes with Biotin-X66 for the N-terminal domain in pull-down", "assay_type": "binding", "parameters": "gene HSP90AA1; recombinant human full-length HSP90α"}}, "data": [{"smiles": "Cc1cc(C)n(-c2nc(NN=Cc3cn(C(=O)CCCC[C@@H]4SC[C@@H]5NC(=O)N[C@@H]54)c4ccccc34)nc(Nc3ccc(Br)cc3)n2)n1", "note": "[Biotin-X66]", "values": [{"measurement": "streptavidin pull-down of purified full-length HSP90α and NTD, competed by exces", "setting": "HSP90α [1]", "value": "Biotin-X66 was able to isolate the recombinant human full-length protein and its N-terminal fragment, but not the C-terminal fragment"}]}, {"smiles": "Cc1cc(C)n(-c2nc(NN=Cc3c[nH]c4ccccc34)nc(Nc3ccc(Br)cc3)n2)n1", "note": "[X66, 4-(2-((1H-indol-3-yl)methylene)hydrazinyl)-N-(4-bromophenyl)-6-(3,5-dimethyl-1H -pyrazol-1-yl)-1,3,5-triazin-2-amine]", "values": [{"measurement": "Kd", "setting": "HSP90α [2]", "value": 5.3, "unit": "µM"}]}]}
